Measured values taken from patent US20220409775A1, “INJECTABLE HYDROGEL COMPOSITION HAVING ENDOGENOUS PROGENITOR OR STEM CELL RECRUITMENT AND INDUCTION OF VASCULAR DIFFERENTIATION OF RECRUITED CELLS” (Ajou University Industry-Academic Cooperation Foundation, priority 2019, published 2022).

How the values were obtained:
[1] = In vitro release of stem cell recruitment factor (SP) and VP from hydrogels; assay type: physicochemical; details: physiological saline, 37° C., 100 rpm, 28 days; CHHA+SP and CHHA-VP+SP hydrogels
Description: First, an HA+VP solution was prepared by simply mixing VP with the HA solution prepared in Example 3 at a concentration of 320 μg/mL, and SP, which is a stem cell recruitment factor, was mixed with each of the HA solution and HA-VP solution at a concentration of 2 μg/mL to prepare an HA+SP solution and HA−VP+SP solution, respectively.
Next, 100 μL of the CH solution and 100 μL of the HA+VP solution were mixed in a vial to prepare 200 μL of a CHHA+VP hydrogel, and 100 μL of the CH solution and 100 μL of the HA-VP solution were mixed in a vial to prepare 200 μL of a CHHA-VP hydrogel.
In addition, 100 μL of the CH solution and 100 μL of HA+SP solution were mixed in a vial to prepare 200 μL of a CHHA+SP hydrogel, and 100 μL of the CH solution and 100 μL of the HA-VP+SP solution were mixed in a vial to prepare 200 μL of a CHHA-VP+SP hydrogel.
3 mL of a physiological saline was placed in each vial and stored in an incubator at 100 rpm and 37° C., and after taking 1 mL of the physiological saline from the vial at a predetermined time, 1 mL of a new physiological saline was added to the vial, and it was carried it out for 28 days to conduct a release experiment.

[2] = tested on: human-derived mesenchymal stem cells (hMSCs); test: SP's ability to recruit stem cells (trans well migration); assay type: cell-based
Description: First, human-derived mesenchymal stem cells (hMSCs) were labeled with PKH 26 dye (Sigma, USA) and then dispensed in the upper chamber (8.0 μm pore size) of a 24-well trans well plate (SPL, Korea) to be 5×10^4 cells. After culturing in the upper chamber for 48 hours using serum-free DMEM (Dubelco's modified eagle medium, Gibco, USA) medium, DMEM containing 1 μg/mL SP and 1% FBS (fetal bovine serum, Gibco, USA) was added to the bottom well, and the medium was replaced every 3 days, and the hMSCs that migrated to the bottom well were observed using a fluorescence microscope (Olympus, Japan). As a control group, DMEM (including 1% FBS) without SP was added to the bottom well and observed.

[3] = 1 μg/mL SP in bottom well, DMEM with 1% FBS

Q: Which “release of SP from hydrogel” value [1] does the source give for Substance P [SP] here?
A: The value was “release of SP occurred regardless of the chemical introduction of VP”.

Q: And the “Migration rate of hMSC” value [2, 3]?
A: Its value is 1.9 × 10^3 cells/day.

Q: What about the Rate constant [2, 3] of the same substance?
A: The Rate constant was -0.49 day⁻¹.

Q: What about the “cells migrated to the lower side” value ([2]; SP present compared with SP absent) of the same substance?
A: The value was “more cells migrated to the lower side”.

Q: What about the Relative migration rate ([2]; SP relative to Cont (no SP)) of the same substance?
A: The Relative migration rate was 1.7.
